# Reference: patent US11506660B2, “Method and system for determining equilibrium dissociation constant of a reversible binding pair” (priority 2017, dated 2022)
# Where two headings read alike, the source gives them in different places.
# Experiments:
# [1] = system: α1-acid glycoprotein (AGP); details: literature, cited from earlier work
# [2] = target: T1, α1-acid glycoprotein (AGP) (Homo sapiens, UniProt P02763); assay: LSTDLPF-MS (APCI mass-spectrometry detection) Kd determination, alprenolol/AGP; type: binding; details: α1-acid glycoprotein (AGP) in buffer, pH 7.5, Kd
# T1 construct: Kd; [alprenolol]0=500 nM; 30 mM ammonium acetate p; Kd; other: MS detection
# Experimental: The LSTDLPF-MS tandem was then used in Kd determination for a reversible binding pair of alprenolol and α1-acid glycoprotein (AGP).
# MS experiments were carried out on a QTRAP 6500+ time-of-flight (Q-TOF) instrument (Sciex, Concord, ON, Canada) with a commercial Turbo V APCI ionization source. The optimal acceleration and focusing conditions were achieved by using 60 V declustering potential at 525° C. and 90 psi gas pressure. The analyses were performed in positive mode and scanned m/z 250 Da for alprenolol. The results were analyzed by using Analyst® QS 2.0 software. The propagation profiles obtained for [alprenolol]0=500 nM and varying [AGP]0 were reproducible (FIGS. 19A-19J). Experimental conditions were: internal capillary diameter=200 μm, capillary length=100 cm, flow rate of LPF=100 μL/min., loop's internal diameter=75 μm, loop's length=22.7 cm, loop's volume=1 μL; EM injection by 5 μL/min for 12 s (plug length=3.2 cm); “pre-separation” plug displacement by 5 μL/min for 12 s (3.2 cm displacement); [AGP]0 ranged from 0 to 1 mM; buffer was 30 mM ammonium acetate buffer at pH 7.5.
# In this case, the screening phenomenon was characterized by enhancing signal of alprenolol with growing [AGP]0, (FIG. 16A). […] The method is also characterized by an acceptable reproducibility.
# [3] = target: T2, BSA (Bos taurus, UniProt P02769); details: known value, Andersson et al. Eur. J. Biochem. 1971; cited from earlier work
# [4] = target: T2, BSA; assay: LSTDLPF-based Kd determination with fluorescence detection, BSA/fluorescein; type: binding, bovine
# Experimental: In an experimental implementation of the method, LSTDLPF was carried out with flow conditions inside the capillary tube being as close to LPF as possible. It is known that LPF is distorted at the capillary entrance open to a large-volume reservoir (A. Molki, L. Khezzar, A. Goharzadeh Eur. J. Phys. 2013, 34, 1127-1134).
# The system operates in the following manner. A loop 116 is utilized in order to deliver the same amount of sample consistently. […] To complete the filling of the loop, the sample 110 was introduced into the loop at 15 μL/min during 12 s (t1) by using a sample low pressure pump 126, which represents 3 times the volume of the loop (FIG. 8A). The low-pressure pump 126 may be, but is not limited to, a syringe pump or a peristaltic pump. While the loop is being filled as depicted in FIG. 8A, the capillary 108 is conditioned with the mobile phase 118 at high flow rate by using a high-pressure pump 124. This high flow rate corresponds to the flow rate utilized during the propagation and will be noted Qprop afterward.
# The injection of the sample is illustrated in FIG. 8B. The positions of both valves 102 and 104 have been switched. In this configuration, the low-pressure pump 128 delivered the mobile phase 112 via the injection loop 116 which contained the sample or equilibrium mixture (EM) 110. […]
# [5] = target: T2, BSA; assay: LSTDLPF-MS (APCI mass-spectrometry detection) Kd determination, BSA/fluorescein; type: binding, bovine
# Experimental: In another embodiment, the LSTDLPF setup was coupled with a mass-spectrometry (MS) detector. To facilitate complete dissociation of SM during ionization, an atmospheric pressure chemical ionization (APCI) ionization source was utilized (FIGS. 14A, 16A). The LSTDLPF-MS tandem was first used to study the same BSA/fluorescein binding pair. Experimental conditions were: internal capillary diameter=200 μm, capillary length=100 cm, flow rate of LPF=100 μL/min. loop's internal diameter=75 μm, loop's length=22.7 cm, loop's volume=1 μL, EM injection into the capillary followed by EM displacement from the capillary opening by 5 μL/min for 12 s (EM plug length=3.2 cm); “pre-separation” plug displacement by 5 μL/min for 12 s (3.2 cm displacement); [fluorescein]0=200 nM; and buffer was 30 mM ammonium acetate buffer at pH 7.5. MS experiments were carried out on a QTRAP 6500+ time-of-flight (Q-TOF) instrument (Sciex, Concord, ON, Canada) with a commercial Turbo V APCI ionization source. The optimal acceleration and focusing conditions were achieved by using 60 V declustering potential at 525° C. and 90 psi gas pressure. The analyses were performed in positive mode and scanned m/z 287 Da for fluorescein. The results were analyzed by using Analyst® QS 2.0 software.
# The MS signal decreased with increasing [BSA]0 (FIG. 14A), due to the screening effect. The results presented repeatability (see FIGS. 15A-15I). Experimental conditions were: internal capillary diameter=200 μm, capillary length=100 cm, flow rate of LPF=100 μL/min. loop's internal diameter=75 μm, loop's length=22.7 cm, loop's volume=1 μL, EM injection by 5 μL/min for 12 s (plug length=3.2 cm); “pre-separation” plug displacement by 5 μL/min for 12 s (3.2 cm displacement); [fluorescein]0=200 nM; [BSA]0 ranged from 0 to 1 mM; and buffer was 30 mM ammonium acetate buffer at pH 7.5. MS experiments were carried out on a QTRAP 6500+ time-of-flight (Q-TOF) instrument (Sciex, Concord, ON, Canada) with a commercial Turbo V APCI ionization source. […] The results were analyzed by using Analyst® QS 2.0 software
# T2 sequence (P02769 25-607): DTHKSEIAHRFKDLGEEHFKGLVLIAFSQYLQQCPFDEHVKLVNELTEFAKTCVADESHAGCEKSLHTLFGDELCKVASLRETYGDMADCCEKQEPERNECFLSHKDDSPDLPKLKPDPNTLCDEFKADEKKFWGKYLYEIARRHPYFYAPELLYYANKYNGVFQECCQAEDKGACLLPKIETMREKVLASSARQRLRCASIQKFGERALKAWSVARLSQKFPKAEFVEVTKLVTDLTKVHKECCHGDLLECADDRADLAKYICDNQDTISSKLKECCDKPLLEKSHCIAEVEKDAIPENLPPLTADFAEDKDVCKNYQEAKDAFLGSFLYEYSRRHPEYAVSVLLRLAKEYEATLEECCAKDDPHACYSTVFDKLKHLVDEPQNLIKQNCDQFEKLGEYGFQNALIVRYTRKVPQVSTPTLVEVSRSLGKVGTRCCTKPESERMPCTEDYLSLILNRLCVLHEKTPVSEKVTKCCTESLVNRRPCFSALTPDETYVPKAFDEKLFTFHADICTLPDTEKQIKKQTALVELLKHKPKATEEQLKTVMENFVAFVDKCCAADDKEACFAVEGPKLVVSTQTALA
# T1 sequence (P02763 19-201): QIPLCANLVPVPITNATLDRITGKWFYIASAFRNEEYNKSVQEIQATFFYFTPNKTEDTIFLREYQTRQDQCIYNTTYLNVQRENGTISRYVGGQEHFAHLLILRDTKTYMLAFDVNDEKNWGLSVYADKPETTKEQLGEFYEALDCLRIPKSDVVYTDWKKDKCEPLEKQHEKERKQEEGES
SMILES,Kd ([1]; Bao et al. ChemBioChem 2011) [µM],Kd ([1]; Imamura et al. Chirality 2002) [µM],"Kd at 500 nM ([2]; after 2-step screening compensation (FIG. 16C), [alprenolol]0=500 nM, 30 mM ammonium acetate pH 7.5) [µM]",Kd at 500 nM ([2]; measurements performed on a different day (FIGS. 20A-20D)) [µM],Kd [3] [µM],"Kd ([4]; single experiment, non-linear regression of isotherm with Equation 5, [fluorescein]0=200 nM, 30 mM ammonium acetate pH 7.5, error = SD of regression, read-out: Kd) [µM]","Kd ([4]; triplicate experiment on three different days, error = SD of the three experiments, read-out: global Kd) [µM]","Kd ([5]; after 2-step screening compensation, first experiment (FIG. 14C), [fluorescein]0=200 nM, read-out: Kd) [µM]","Kd ([5]; after screening compensation, reproduced on another day (FIG. 18), read-out: Kd) [µM]","Kd ([5]; weighted average of the two Kd measurements, read-out: weighted average of Kd) [µM]"
"C=CCc1ccccc1OCC(O)CNC(C)C (stereo not shown) [alprenolol, Alprenolol]",2.1 ± 0.3,1.6 ± 0.1,1.8 ± 0.2,4.1 ± 0.8,,,,,,
O=C1OC2(c3ccc(O)cc3Oc3cc(O)ccc32)c2ccccc21 [fluorescein],,,,,~30,23 ± 3,20 ± 2,32 ± 4,24 ± 2,26 ± 2
